Experimental data reported in patent publication US20220273926A1, “DRUG DELIVERY USING MICRONEEDLE ARRAYS” (BOARD OF REGENTS OF THE UNIVERSITY OF NEBRASKA, priority 2019, published 2022).
Read-outs that look alike come from different tables or passages of the source.

Legend:
[1] = Release profile from hydrogel-filled MNAs; format: physicochemical; details: three concentrations, 3 mm and 2 mm MNAs, 72 hrs in PBS
Protocol: MNAs were filled with this BSA-containing alginate solution and Calcium Chloride (CaCl2) used for crosslinking following this protocol: first placing MNAs in 3% (w/v) agarose gel containing 2% (v/v) CaCl2 for few minutes and then pipetting additional 2% (v/v) CaCl2 over the tops to ensure complete crosslinking.
To perform a 3-day long release study, each needle array was placed in 0.5 mL of PBS. Samples were taken from solution at each time point over the course of 72 hrs and were stored in micro vials at room temperature over the duration of the release. For the final evaluation of protein release, 150 μL of each sample added to 96 well plates mixed with 150 μL of working reagent. Working reagent solution was made from a mixture of reagent A, B and C of BCA protein kit with the ratio of 24:24:1. Once reagents and samples were mixed, plates were incubated at 37° C. for an hour, and a plate reader (BioTech) used to read the absorption. Absorption values from the plate reader converted to concentrations using a calibration curve.
After filling the MNAs with the solution, PEGDA was photocrosslinked for approximately 30 seconds using a handheld UV light. A similar experimental protocol followed to study protein release from PEGDA over the course of 72 hours.

[2] = topical delivery; 100 μL of 5 mg/mL; 3% agarose; 30 min
Excerpt: Agarose and other agar-based hydrogels have been widely used as skin models in previous studies^37,38. […] The intensity is also plotted quantitatively against the depth of penetration (FIG. 15C).

[3] = system: full-thickness wounds on the dorsum of Yorkshire pigs; details: day 14
Protocol: To serve as controls, a group of wounds was treated with PBS for evaluating the potential effects of MNA administration, and a group was left untreated.
Large animal studies: The procedures for porcine animal studies were performed at Toxikon Corporation (Bedford, Mass.). The study protocol was approved by Toxikon's Institutional Animal Care and Use Committee, and conformed to federal animal laws and regulations. Three Yorkshire pigs (Animal Biotech Industries, Danboro, Pa.), 70-80 kg each, were anesthetized by intramuscular administration of 3.3 mg/kg ketamine, 2.2 mg/kg xylazine, 1.1 mg/kg acepromazine, and 0.02 mg/kg atropine. 0-5% isoflurane and oxygen were provided to maintain general anesthesia. Pain management was achieved by administration of a transdermal patch releasing 2-3 mkg/kg/h fentanyl per hour for 72 hours (Duragesic, Janssen). In addition, buprenorphine 0.01-0.03 mg/kg was delivered intramuscularly at the end of the surgery.
Circular full-thickness wounds (d=2.5 cm) were created on the dorsum of each pig. After marking the wounds in parallel paraspinal stripes, the outlines were tattooed with red ink using an electric tattoo marker (Spaulding & Rogers Mfg., Inc., Voorheesville, N.Y.). Full-thickness wounds down to fascia were excised. […]
For macroscopic wound evaluation, wound contraction was measured of the tattooed margins from macroscopic wound photos using Image J software (NIH, Bethesda, Md.). Open wound area (S1) and the area inside tattooed margin (S2) were measured and compared with original wound size on day 0 (S0=5 cm^2). The wound contraction and non-contracted wound closure contributions were calculated as 100×(S2−S0)/S0 and 100×(S2−S1)/S0, respectively.
In the swine experiment, the wounds were excised using a scalpel and fixed in formalin for immunohistochemical analysis. […] The wound sections were immunostained for von Willebrand Factor (vWF), smooth muscle actin (SMA), and CD3 based on manufacturers' protocols and the amount of positive staining was quantified in a blinded-manner using a light microscope.

[4] = system: full-thickness skin wounds of diabetic (Lepr^db) mice; details: for average healing rate: 100 μL of 500 ng/mL on days 5 and 7; for histological features at the central region of the wounds (H&E): day 19
Excerpt: On the day of surgery, mice received a full thickness (1×1 cm^2) skin wound on their dorsum. Mice with the full thickness (1×1 cm^2) wound on their dorsum were kept untreated for 5 days to allow eschar formation. Animals received treatment via three different delivery methods on days 5 and 7 post-surgery. […] Similar to in vitro experiments, to minimize the potential injury upon the delivery of therapeutics intradermally using LJI, a layer of agarose was placed between the wound and the nozzle.
Small Animal studies: Murine animal procedures were approved by the Institutional Animal Care and Use Committee (IACUC) of the University of Nebraska, Lincoln. Six to seven weeks old B6.BKS(D)-Lepr^db/J mice were obtained from the Jackson Laboratory (Bar Harbor, Me.). Since this mouse strain had congenic obesity, the animals were put on a special food diet. […] On day 0 of the study, 5% isoflurane was provided via a nose cone for anesthetization of animals and 3% isoflurane was used for maintaining sedation. The hair on the dorsal area was shaved, the skin was sterilized, and a full-thickness skin cut of 1 cm×1 cm was created. Buprenorphine SR was administered for pain relief at the time of surgery.
Animals received treatments on day 5 and day 7 post-surgery. […] To minimize the potential damage of solutions delivered by LJI to mice, an approximately 9 mm thick layer of 5% (w/v) of agarose was placed between the LJI nozzle and animal skin (FIG. 21).
Animals were inspected daily for wound closure, weight change and vitals. All animals were sacrificed on day 19 post-surgery using CO2 asphyxiation using a 30% oxygen displacement rate. The wound tissue was harvested and fixed in 10% neutral buffered formalin for further histological study.
Histological analysis: Sections of harvested skin were fixed by immersion in 10% neutral buffered formalin and routinely processed on a Tissue-Tek VIP 5 Tissue Processor. After processing, the tissues were embedded in paraffin blocks and were sectioned at 4 μm thick on a HM 355S Thermo Scientific microtome. Slides were deparaffinized and stained with H&E using a Leica ST5020 H&E stainer. Histological evaluation was conducted by a board certified veterinary anatomic blinded to the experiment.
Immunohistochemistry staining: In the murine study, formalin-fixed and paraffin-embedded biopsies were cut into 7 μm thick samples. Slides were deparaffinized, hydrated and washed using xylene and ethanol solutions. Subsequently, a heat mediated antigen retrieval step was performed at 95° C. for […]. The sections were blocked using 2.5% normal horse serum for 30 min at room temperature, and incubated with primary antibody (anti-CD31) at 4° C. overnight. Tissue sections were then treated with 3% hydrogen peroxide for 10 minutes at room temperature to block the peroxidase activity. Secondary antibody was then applied for 30 minutes at room temperature. To form a colored precipitate, DAB solution was incubated on the slides for 3-5 minutes. Finally, counterstaining was performed using hematoxylin for 30 seconds, and sections were dehydrated, washed, covered with mounting solution, and cover slipped.

HUVECs = details: VEGF equivalent to 50 ng/mL through MNAs
Protocol: To develop a method for mimicking the crust and necrotic tissue covering chronic wounds, 12-well cell culture inserts were used and covered with […] of 3% (w/v) agarose solution […]. […] Similar techniques were applied for scratch assay with seeding HUVECs in the bottom of chamber covered by 2 mL basal media.
To assess the effectiveness of the released factors, a standard scratch assay was conducted. Wells of a 12-well plate were coated by Geltrex. After aspirating the Geltrex from the wells, 30,000 cells per well were seeded and cultured until a confluent monolayer formed in each well. The cells were cultured in basal media supplemented with 2% FBS for 6 hours. prior to the experiments. On the day of experiments, an approximately 200 μm wide scratch was formed using a 200 μL micropipette tip. […] Fixed points of each well (two points per well) were imaged using a Nikon Ti inverted microscope after 0, 2, and 4 hours after each treatment application. A total of 4 samples per condition was tested.

[5] = system: full thickness skin wounds of diabetic (Lepr^db) mice
Protocol: To further investigate the potential benefits of MNAs in treatment of diabetic and chronic wounds, an animal study was conducted on diabetic mice with cutaneous wounds. Homozygous mice for the diabetes spontaneous mutation (Lepr^db) become identifiably obese around 3 to 4 weeks of age. On day 10 to 14 elevations of plasma insulin begin and at four to eight weeks the blood sugar level elevates. With a delayed wound healing and an increased metabolic efficiency this mouse strain serves as a suitable model for chronic wound research.
On day one, all the mice received a square shaped 1 cm×1 cm full thickness skin cut on their dorsum. The animals were kept untreated for 5 days to allow the formation of wound crust. On days 5 and 7 post-surgery, animals received the planned treatment. T weight of each animal was recorded periodically, and wound areas were assessed every two days and photographed to monitor investigate wound closure (FIG. 5A).
Animal Studies: All animal procedures were reviewed and approved by the Institutional Animal Care and Use Committee (IACUC) of the University of Nebraska, Lincoln. Five weeks old B6.BKS(D)-Lepr^db/J mice were purchased from the Jackson Laboratory (Bar Harbor, Me.) weighted between 34-43 grams and accommodated in University of Nebraska, Life Science, animal facility for one week before the wound injury procedure. The animals were on special food diet during the entire research period.
In the day 1, all animals were anesthetized by 5% of isoflurane using anesthesia system, (VetFlo, Kent Scientific, Torrington, Conn.) via a nose cone. The hair on the dorsal region of animals was shaved using an electric razor. The skin was sterilized, and a full thickness skin cut of 1 cm×1 cm was created. The wounds were covered with a regular bandage. All mice placed back in separate cages individually after recovering from anesthesia. Animals were monitored for wound condition, vitals and wellbeing, and weight gain/loss trends daily.
To simulate the real wound conditions covered by crust and necrotic tissues, treatment start points were on day 5 by which a complete crust was formed on the wounds. […] In the topical delivery group, 100 μl of the solution was poured topically using a pipette on the top of the wound and the animals were let to sit for about 10 minutes, the wound was then covered by a fresh dressing. In MNAs delivery group, 100 μl of the solution was delivered using the MNAs and after 10 min, the microneedles were removed and the wound was covered by a fresh dressing. Animals of negative control received no treatment. […] Wounds were inspected every 2 days and the bandage was changed and a picture of the wound was taken using a digital camera.
On day 19, all animals were sacrificed using 20% CO2 volume displacement (flow rate cage volume/per minute) poisoning overdose and wound tissue was harvested and fixed in using 4% paraformaldehyde (PFA).
Histology: Frozen sections of haired skin were stored in a −80° C. ultralow freezer prior to sectioning on a cryotome. The sections of skin were cut 10 μm thick using a Thermo Scientific CryoStar NX50, routinely stained with hematoxylin and eosin on a Leica ST5020 H&E stainer, and coverslipped with a Leica CV5030 coverslipper. A veterinary anatomic pathologist who is board certified by the American College of Veterinary Pathologists performed all histological evaluations. Immunohistochemistry was done manually using Anti-CD31, rabbit host species (ab28364, Abcam, MA, USA).

CCN(CC)c1ccc2c(-c3ccccc3C(=O)O)c3ccc(=[N+](CC)CC)cc-3oc2c1.[Cl-] [rhodamine B]
release profile from alginate-filled MNAs [1]: curved burst release over the first 6 hours, with slower, more linear release over the next 3 days
depth after which dye intensity promptly decreased [2]: ~1 mm

vascular endothelial growth factor [VEGF]
expression of SMA+ myofibroblasts (IHC) ([3]; VEGF delivery): decreased the expression of SMA+ myofibroblasts
vascularization (vWF expression) ([3]; intradermal (MNA) delivery): a significant enhancement in vascularization
vascularization (vWF expression) ([3]; topical delivery): clearly less effective in inducing vascularization
average healing rate ([4]; LJI delivery, end of the study): 81%
average healing rate ([4]; MNA delivery, end of the study): 96%
average wound size ([4]; MNA delivery, end of the study): 0.04 cm^2
histological features at the central region of the wounds (H&E) ([4]; TOP-administrated): contained a bed of granulation tissue with a partially healed center
histological features at the central region of the wounds (H&E) ([4]; intradermal delivery (MNA, LJI)): more advanced wound healing characteristics
vascularization, IHC staining against CD31 ([4]; intradermal delivery vs topical and controls, 19 days post-injury): Superior vascularization
overall healing ([4]; intradermal delivery vs topical delivery and controls, 19 days after surgery): improved healing
wound closure ([4]; topical delivery, end of the 20-day study): about 66%
wound closure rate compared to negative control groups ([4]; topical delivery, vs no treatment or PBS via MNA and LJI): No significant difference was observed in the wound closure rate
migration rate (HUVECs): comparable to the positive control group
scratch closure (HUVECs; in 4 hours): 100%
wound closure / healing rate ([5]; MNA delivery, 100 μL of 500 ng/mL on days 5 and 7, day 19): 95%
wound closure compared with other groups ([5]; MNA delivery, day 17 and 19): significantly faster than both topical delivery and negative control groups
average wound size ([5]; MNA delivery, day 19): 0.04 cm^2
scarring ([5]; MNA delivery, end of the experiments): no evidence of scaring was observed
hair growth in the wound area ([5]; topical delivery): no hair growth was observed
wound closure rate compared to negative control ([5]; topical delivery): No significant difference was observed in the wound closure rate
